Common to all, as to format: biochemical
Common to all, as to conditions: 10 nM JAK enzyme, 800 nM Abl peptide, room temperature 75 min

One experiment has as its target T1, JAK3 (Homo sapiens, UniProt P52333).
T1 sequence (P52333 1-1124): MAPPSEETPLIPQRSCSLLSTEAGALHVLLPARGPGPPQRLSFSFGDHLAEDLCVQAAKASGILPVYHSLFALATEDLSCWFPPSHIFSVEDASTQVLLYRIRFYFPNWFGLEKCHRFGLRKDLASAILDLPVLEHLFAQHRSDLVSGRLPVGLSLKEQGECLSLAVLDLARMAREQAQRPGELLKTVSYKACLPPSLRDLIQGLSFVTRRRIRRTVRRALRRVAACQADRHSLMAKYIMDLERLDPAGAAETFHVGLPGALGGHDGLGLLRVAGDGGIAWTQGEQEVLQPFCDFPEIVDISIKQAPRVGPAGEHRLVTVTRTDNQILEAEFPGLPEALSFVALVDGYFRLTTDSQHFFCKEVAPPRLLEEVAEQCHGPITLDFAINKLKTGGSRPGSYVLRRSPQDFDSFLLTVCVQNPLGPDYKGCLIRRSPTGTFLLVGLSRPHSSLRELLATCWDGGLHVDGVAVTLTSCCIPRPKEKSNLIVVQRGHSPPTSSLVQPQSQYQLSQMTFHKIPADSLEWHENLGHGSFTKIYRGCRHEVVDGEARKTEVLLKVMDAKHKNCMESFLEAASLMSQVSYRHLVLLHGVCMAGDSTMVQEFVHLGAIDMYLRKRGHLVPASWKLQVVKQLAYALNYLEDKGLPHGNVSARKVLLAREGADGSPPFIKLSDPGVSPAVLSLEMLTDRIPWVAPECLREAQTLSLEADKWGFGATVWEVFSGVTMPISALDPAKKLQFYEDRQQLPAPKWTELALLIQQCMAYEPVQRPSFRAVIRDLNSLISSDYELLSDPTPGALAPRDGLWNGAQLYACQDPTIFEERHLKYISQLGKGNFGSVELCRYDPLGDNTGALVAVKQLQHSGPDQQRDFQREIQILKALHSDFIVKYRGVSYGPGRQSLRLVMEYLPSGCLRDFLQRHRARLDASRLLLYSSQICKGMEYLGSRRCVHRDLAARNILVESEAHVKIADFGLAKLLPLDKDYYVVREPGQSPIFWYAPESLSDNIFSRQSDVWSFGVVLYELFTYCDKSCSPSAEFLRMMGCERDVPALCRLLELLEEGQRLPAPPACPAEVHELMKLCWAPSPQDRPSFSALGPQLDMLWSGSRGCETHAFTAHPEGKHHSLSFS
The experiment is described as follows: JAK assay (KINASE-GLO luminescent kinase assay), JAK3. In short, it runs like this:
(§1)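 The 2× mix gave 10 nM kinase, 800 nM Abl peptide and 2 µM DTT, and ATP was added as a 4× stock (2 µM), in HEPES pH 7.5 buffer. Compounds ran as an 11-point series, 100 µM–10 pM final in 2.5% DMSO, for 75 min at RT. Remaining ATP was read by luminescence against DMSO control, and 4-parameter IC50s were converted to Ki by Cheng-Prusoff.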
For orientation: In Kinase-Glo more light means more ATP remaining.

The target in the next experiment is TYK2 (Homo sapiens, UniProt P29597). The experiment is described as follows: JAK assay (KINASE-GLO luminescent kinase assay), TYK2.
For another experiment, the target named is JAK1 (Homo sapiens, UniProt P23458). The experiment is described as follows: JAK assay (KINASE-GLO luminescent kinase assay), JAK1. In short, it runs like this:
as §1

The next experiment has as its target JAK2 (Homo sapiens, UniProt O60674). Put plainly: JAK assay (KINASE-GLO luminescent kinase assay), JAK2. In short, it runs like this:
as §1

Data on 29 molecules can be found in patent US20250236611A1, “PYRAZOLE COMPOUNDS AND USES THEREOF” (ALCON INC., priority 2021, published 2025).

For orientation: IC50 means the point on the concentration scale where inhibition reaches its midpoint. A higher IC50 goes with weaker potency in that assay.

Chain of JAK2 (O60674 whole entry): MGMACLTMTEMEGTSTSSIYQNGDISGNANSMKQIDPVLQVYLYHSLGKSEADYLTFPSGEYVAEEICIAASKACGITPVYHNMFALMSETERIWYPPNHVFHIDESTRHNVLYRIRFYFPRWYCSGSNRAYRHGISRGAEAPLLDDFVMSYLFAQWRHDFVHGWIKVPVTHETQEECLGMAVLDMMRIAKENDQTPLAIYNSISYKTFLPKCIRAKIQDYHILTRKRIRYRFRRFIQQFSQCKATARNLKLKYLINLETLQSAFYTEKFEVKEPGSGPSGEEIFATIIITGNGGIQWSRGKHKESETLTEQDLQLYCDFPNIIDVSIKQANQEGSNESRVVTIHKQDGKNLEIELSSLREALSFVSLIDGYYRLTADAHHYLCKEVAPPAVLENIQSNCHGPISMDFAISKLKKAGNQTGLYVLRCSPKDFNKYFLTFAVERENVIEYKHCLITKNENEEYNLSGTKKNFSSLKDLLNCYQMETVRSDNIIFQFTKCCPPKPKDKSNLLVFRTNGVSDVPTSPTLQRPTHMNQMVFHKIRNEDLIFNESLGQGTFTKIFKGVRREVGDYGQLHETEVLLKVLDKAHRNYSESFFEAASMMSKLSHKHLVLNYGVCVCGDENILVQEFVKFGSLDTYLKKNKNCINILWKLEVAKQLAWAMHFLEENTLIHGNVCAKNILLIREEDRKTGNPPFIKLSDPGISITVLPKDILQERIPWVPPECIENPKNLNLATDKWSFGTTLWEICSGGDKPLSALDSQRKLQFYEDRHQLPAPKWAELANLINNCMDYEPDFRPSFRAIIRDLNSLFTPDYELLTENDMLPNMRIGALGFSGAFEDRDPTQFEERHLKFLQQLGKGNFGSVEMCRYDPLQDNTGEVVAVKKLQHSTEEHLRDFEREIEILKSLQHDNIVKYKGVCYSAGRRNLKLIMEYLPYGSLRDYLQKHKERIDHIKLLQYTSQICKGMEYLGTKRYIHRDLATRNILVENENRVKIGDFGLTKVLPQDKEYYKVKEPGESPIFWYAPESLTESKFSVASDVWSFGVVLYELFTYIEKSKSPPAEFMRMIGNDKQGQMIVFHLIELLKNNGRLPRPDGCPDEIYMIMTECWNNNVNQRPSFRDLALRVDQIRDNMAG
Chain of JAK1 (P23458 whole entry): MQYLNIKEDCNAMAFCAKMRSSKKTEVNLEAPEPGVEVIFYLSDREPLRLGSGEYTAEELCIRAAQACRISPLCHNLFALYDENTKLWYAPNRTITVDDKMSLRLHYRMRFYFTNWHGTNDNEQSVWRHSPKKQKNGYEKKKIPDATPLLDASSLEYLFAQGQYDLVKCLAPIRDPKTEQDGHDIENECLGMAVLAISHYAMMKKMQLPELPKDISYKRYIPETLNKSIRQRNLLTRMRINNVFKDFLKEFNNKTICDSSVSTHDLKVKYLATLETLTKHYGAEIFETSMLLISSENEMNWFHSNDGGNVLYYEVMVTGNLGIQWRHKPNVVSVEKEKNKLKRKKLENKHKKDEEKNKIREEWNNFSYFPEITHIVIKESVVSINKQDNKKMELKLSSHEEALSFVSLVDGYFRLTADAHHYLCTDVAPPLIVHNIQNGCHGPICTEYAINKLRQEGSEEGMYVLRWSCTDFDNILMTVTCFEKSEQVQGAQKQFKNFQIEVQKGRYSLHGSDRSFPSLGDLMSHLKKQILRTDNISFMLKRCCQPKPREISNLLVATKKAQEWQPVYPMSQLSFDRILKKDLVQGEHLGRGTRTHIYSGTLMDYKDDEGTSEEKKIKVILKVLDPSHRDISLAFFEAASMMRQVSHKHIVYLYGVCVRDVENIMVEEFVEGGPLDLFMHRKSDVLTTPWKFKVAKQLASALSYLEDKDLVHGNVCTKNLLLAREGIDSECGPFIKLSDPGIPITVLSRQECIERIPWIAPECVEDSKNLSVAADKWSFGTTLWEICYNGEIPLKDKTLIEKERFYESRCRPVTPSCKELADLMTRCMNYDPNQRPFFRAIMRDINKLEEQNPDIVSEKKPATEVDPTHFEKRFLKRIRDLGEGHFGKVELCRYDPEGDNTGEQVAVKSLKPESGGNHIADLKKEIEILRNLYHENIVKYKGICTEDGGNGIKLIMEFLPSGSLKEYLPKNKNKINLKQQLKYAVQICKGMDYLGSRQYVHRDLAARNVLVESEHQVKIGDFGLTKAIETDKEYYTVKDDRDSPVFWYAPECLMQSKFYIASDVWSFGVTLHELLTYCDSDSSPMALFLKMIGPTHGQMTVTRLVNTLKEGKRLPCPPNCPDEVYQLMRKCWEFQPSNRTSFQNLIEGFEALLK
Chain of TYK2 (P29597 whole entry): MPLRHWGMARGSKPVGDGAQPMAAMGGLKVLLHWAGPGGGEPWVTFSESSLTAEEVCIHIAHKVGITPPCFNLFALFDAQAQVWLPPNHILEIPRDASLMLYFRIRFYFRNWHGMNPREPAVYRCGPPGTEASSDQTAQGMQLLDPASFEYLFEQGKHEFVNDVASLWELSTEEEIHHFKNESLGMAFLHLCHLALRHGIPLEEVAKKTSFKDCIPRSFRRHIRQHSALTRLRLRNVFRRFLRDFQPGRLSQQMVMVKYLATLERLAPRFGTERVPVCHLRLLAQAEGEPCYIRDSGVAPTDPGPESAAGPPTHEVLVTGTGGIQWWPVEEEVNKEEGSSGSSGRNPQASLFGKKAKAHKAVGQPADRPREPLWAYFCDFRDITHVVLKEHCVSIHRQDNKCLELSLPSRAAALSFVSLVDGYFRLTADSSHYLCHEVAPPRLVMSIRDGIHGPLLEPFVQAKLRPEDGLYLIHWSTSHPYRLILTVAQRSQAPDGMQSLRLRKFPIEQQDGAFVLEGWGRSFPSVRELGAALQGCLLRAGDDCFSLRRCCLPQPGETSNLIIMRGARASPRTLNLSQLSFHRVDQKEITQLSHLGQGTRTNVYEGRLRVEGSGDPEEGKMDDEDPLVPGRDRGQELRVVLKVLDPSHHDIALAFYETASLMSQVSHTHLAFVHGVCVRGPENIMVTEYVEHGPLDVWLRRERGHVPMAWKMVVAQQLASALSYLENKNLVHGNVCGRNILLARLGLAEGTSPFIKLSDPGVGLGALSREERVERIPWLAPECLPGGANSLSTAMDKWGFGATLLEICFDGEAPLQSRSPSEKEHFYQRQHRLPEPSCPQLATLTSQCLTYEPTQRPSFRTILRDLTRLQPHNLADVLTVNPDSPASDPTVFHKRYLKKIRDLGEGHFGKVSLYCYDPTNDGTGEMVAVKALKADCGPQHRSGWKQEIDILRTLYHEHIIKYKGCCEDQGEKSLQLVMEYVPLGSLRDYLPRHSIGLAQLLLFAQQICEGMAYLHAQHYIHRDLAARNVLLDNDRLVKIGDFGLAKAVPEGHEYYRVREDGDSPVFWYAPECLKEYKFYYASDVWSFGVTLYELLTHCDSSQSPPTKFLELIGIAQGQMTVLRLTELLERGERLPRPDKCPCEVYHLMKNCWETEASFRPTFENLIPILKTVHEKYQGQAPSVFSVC

In the case of `Cc1cncc(Nc2ncc(C)c(-c3cnn(CC4(CF)CCC4)c3)n2)c1` [CC1═CN═CC(═C1)NC2═NC(═C], the IC50 against JAK3 was under 100 nM; on TYK2, under 100 nM; against JAK1 it was under 100 nM; against JAK2, under 10 nM.
Turning to `Cc1cnc(Nc2ccc(S(C)(=O)=O)c(F)c2)nc1-c1cnn(CC2(Cl)CC2)c1` [CC1═C(N═C(NC2═CC═C(C(═C2)F)[S]], the IC50 against JAK3 was under 100 nM; against TYK2, under 10 nM; against JAK1, under 100 nM; against JAK2, under 10 nM.
Consider `Cc1cc(Nc2ncc(C)c(-c3cnn(CC4(CN(C)C)CC4)c3)n2)sn1` [CN(C)CC1(CC1)C[N]2C═C(C═N2)C3═C], for which the IC50 at JAK3 is under 100 nM; against TYK2 it was under 100 nM; on JAK1 it was under 100 nM; on JAK2, under 10 nM.
For `Cc1cnc(Nc2ccccn2)nc1-c1cnn(CC2(Cl)CC2)c1` [CC1═C(N═C(NC2═CC═CC═N2)N═C1)C3═C[N]], the IC50 on JAK3 was under 100000 nM; on TYK2, under 100000 nM; on JAK1, under 100000 nM; against JAK2 it was under 1000 nM.
`CC(C)(C)OC(=O)N1CCC(Nc2ncc(Cl)c(-c3cnn(CCC#N)c3)n2)C(F)(F)C1` (centres unmarked) [CC(C)(C)OC(═O)N1CCC(NC2═NC(═C]: the IC50 against JAK3, against TYK2, on JAK1 and against JAK2 was over 50000 nM in each case.
`Cc1cnc(Nc2ccc(CO)c(CO)c2)nc1-c1cnn(CC2(CF)CC2)c1` [CC1═C(N═C(NC2═CC═C(CO)C]: the IC50 at JAK3 was under 100 nM; at TYK2, under 10 nM; against JAK1, under 100 nM; against JAK2, under 10 nM.
As for `CC(C)(C)OC(=O)N1CCN(c2ccc(Nc3ncc(Cl)c(-c4cnn(CCC#N)c4)n3)cc2)CC1` [CC(C)(C)OC(═O)N1CCN(CC1)C2═CC═C], the IC50 on JAK3 was under 10 nM; at TYK2 it was under 10 nM; against JAK1, under 100 nM; on JAK2 it was under 10 nM.
On to `COc1cnc(Nc2cc(COC(=O)c3ccccc3)ns2)nc1-c1cnn(CC2(CF)CC2)c1` [COC1═C(N═C(NC2═CC(═NS2)COC], for which the half-inhibitory concentration (IC50) at JAK3 is under 100 nM; at TYK2, under 100 nM; at JAK1 it was under 100 nM; against JAK2 it was under 10 nM.
`CNC(=O)c1cccc(Nc2ncc(Cl)c(-c3cnn(CC4(NC)CC4)c3)n2)c1` [CNC(═O)C1═CC═CC(═C1)NC2═NC]: the half-maximal inhibitory concentration (IC50) at JAK3 was under 100 nM; on TYK2, under 1000 nM; at JAK1 it was under 1000 nM; on JAK2 it was under 10 nM.
As to `N#CCCn1cc(-c2nc(Nc3ccsc3)ncc2Cl)cn1` [ClC1═C(N═C(NC2═CSC═C2)N═C1)C3═C[N]], the IC50 on JAK3, against TYK2, at JAK1 and against JAK2 was under 100000 nM throughout.
As to `COC(=O)c1cc(Nc2ncc(C)c(-c3cnn(CCC#N)c3)n2)ccc1N1CCOCC1` [COC(═O)C1═C(C═CC(═C1)NC2═NC(═C], the IC50 against JAK3, against TYK2, against JAK1 and on JAK2 was under 10 nM throughout.
Regarding `N#CC1(Cn2cc(-c3nc(Nc4ccns4)ncc3Cl)cn2)CCC1` [ClC1═C(N═C(NC2═CC═NS2)N═C1)C3═C[N]], the IC50 against JAK3 was under 100 nM; against TYK2, under 100 nM; at JAK1, under 100 nM; against JAK2 it was under 10 nM.
As to `CCS(=O)(=O)N1CC(CO)(Cn2cc(-c3nc(Nc4cc(C)ns4)ncc3Cl)cn2)C1` [CC[S](═O)(═O)N1CC(CO)], the IC50 on JAK3 is under 100000 nM; against TYK2, under 100000 nM; on JAK1, under 1000 nM; at JAK2, under 1000 nM.
In the case of `N#CCC1(Cn2cc(-c3ccnc(Nc4cc(CO)ns4)n3)cn2)CC1` [OCC1═NSC(═C1)NC2═NC(═CC═N2)C3═C[N]], the IC50 was under 100 nM at JAK3, under 10 nM against TYK2, under 100 nM on JAK1 and under 10 nM against JAK2.
Turning to `Cc1cnc(Nc2cc(CO)ns2)nc1-c1cnn(CC2(CF)CC2)c1` [CC1═C(N═C(NC2═CC(═NS2)CO)N═C1)C3═C[N]], the IC50 against JAK3, against TYK2, on JAK1 and against JAK2 was under 10 nM throughout.
In the case of `COc1ccc(Nc2ncc(C)c(-c3cnn(CC4(CF)CC4)c3)n2)cn1` [COC1═CC═C(NC2═NC(═C], the IC50 was under 100 nM against JAK3, under 100 nM against TYK2, under 1000 nM on JAK1 and under 10 nM at JAK2.
With `Cc1cnc(Nc2ccc(S(C)(=O)=O)cc2)nc1-c1cnn(CC2(Cl)CC2)c1` [CC1═C(N═C(NC2═CC═C(C═C2)[S]], the IC50 against JAK3 is under 10 nM; against TYK2, under 10 nM; on JAK1, under 100 nM; against JAK2 it was under 10 nM.
As for `Cc1cnc(Nc2ccc(N3CC4(COC4)C3)cc2)nc1-c1cnn(CC2(CF)CC2)c1` [CC1═C(N═C(NC2═CC═C(C═C2)N3CC4], the IC50 was under 10 nM against JAK3, under 100 nM at TYK2, under 100 nM against JAK1 and under 10 nM at JAK2.
In the case of `N#CCCn1cc(-c2nc(Nc3ccc(CCO)cc3)ncc2Cl)cn1` [OCCC1═CC═C(NC2═NC(═C], the half-maximal inhibitory concentration (IC50) against JAK3 is under 100 nM; against TYK2, under 10 nM; on JAK1 it was under 100 nM; against JAK2, under 10 nM.
In the case of `Cc1cnc(N2CCCCC2)nc1-c1cnn(CCC#N)c1` [CC1═C(N═C(N═C1)N2CCCCC2)C3═C[N]], the IC50 at JAK3, at TYK2, against JAK1 and against JAK2 was over 50000 nM throughout.
Regarding `Cc1cnc(Nc2ccc(CNC(=O)[C@H](C)N)cc2)nc1-c1cnn(CC2(CF)CC2)c1` [C[C@H](N)C(═O)NCC1═CC═C(NC2═NC], the IC50 is under 100 nM against JAK3, under 100 nM against TYK2, under 100 nM on JAK1 and under 10 nM against JAK2.
As for `CC(C)(C)OC(=O)NCc1cccc(Nc2ncc(Cl)c(-c3cnn(CC4(CF)CC4)c3)n2)c1` [CC(C)(C)OC(═O)NCC1═CC═CC], the IC50 was under 10 nM against JAK3, under 100 nM against TYK2, 157 nM at JAK1 and under 100 nM against JAK2.
As for `N#CCC1(Cn2cc(-c3ccnc(Nc4ccns4)n3)cn2)CC1` [N#CCC1(CC1)C[N]2C═C(C═N2)C3═CC═NC], the IC50 is under 100 nM on JAK3, under 100 nM against TYK2, under 100 nM against JAK1 and under 10 nM against JAK2.
`Cc1cc(Nc2ncc(Cl)c(-c3cnn(CCC#N)c3)n2)on1` [CC1═NOC(═C1)NC2═NC(═C]: the IC50 at JAK3 is under 1000 nM; against TYK2 it was under 100 nM; against JAK1 it was under 100 nM; against JAK2, under 10 nM.
Turning to `CNC(=O)c1ccc(Nc2ncc(C)c(-c3cnn(CC4(CF)CC4)c3)n2)cc1` [CNC(═O)C1═CC═C(NC2═NC(═C], the IC50 against JAK3, at TYK2, on JAK1 and on JAK2 was under 10 nM in each case.
On to `CCc1cnc(Nc2cc(C)ns2)nc1-c1cnn(CC2(Cl)CC2)c1` [CCC1═C(N═C(NC2═CC], for which the IC50 is under 10 nM against JAK3, under 100 nM against TYK2, under 100 nM against JAK1 and under 10 nM on JAK2.
On to `N#CC1(Cn2cc(-c3nc(Nc4ccc(C(=O)O)nc4)ncc3Cl)cn2)CC1` [OC(═O)C1═NC═C(NC2═NC(═C], for which the IC50 is under 1000 nM against JAK3, under 100 nM against TYK2, under 100 nM at JAK1 and under 10 nM against JAK2.
Take `Cc1cnc(Nc2cccc3c2CNC3=O)nc1-c1cnn(CC2(Cl)CC2)c1` [CC1═C(N═C(NC2═C3CNC]: the IC50 is under 1000 nM at JAK3, under 100000 nM at TYK2, under 100000 nM on JAK1 and under 100 nM on JAK2.
Turning to `Cc1cnc(Nc2ccc(N3CCOCC3)cc2)nc1-c1cnn(CC2(C#N)CC2)c1` [C(C1═C(N═C(NC2═CC═C(C═C2)N3CCOCC3)], the IC50 was under 10 nM against JAK3, under 10 nM against TYK2, under 100 nM against JAK1 and under 10 nM on JAK2.
